Laboratory results taken from patent US9580396B2, “C6-spiro iminothiadiazine dioxides as BACE inhibitors, compositions, and their use” (Merck Sharp & Dohme Corp., priority 2012, dated 2017).

What was measured:
[1] = biological target: purified human autoBACE-2 (Homo sapiens (Human), UniProt Q9Y5Z0); test: BACE-2 Assay (BACE-HTRF assay); type: biochemical; conditions: Ki calculated from IC50 using the Cheng-Prusoff equation; QSY7-EISEVNLDAEFC-Eu-amide substrate, pH 5.0; read-out: BACE2 Ki
Description: Inhibitor IC50s at purified human autoBACE-2 are determined in a time-resolved endpoint proteolysis assay that measures hydrolysis of the QSY7-[…]-Eu-amide FRET peptide substrate (BACE-HTRF assay). […] DMSO is present at 5% final concentration in the assay. Following laser excitation of sample wells at 320 nm, the fluorescence signal at 620 nm is collected for 400 ms following a 50 μs delay on a RUBYstar HTRF plate reader (BMG Labtechnologies). Raw RFU data is normalized to maximum (1.0 nM BACE/DMSO) and minimum (no enzyme/DMSO) RFU values. […] The Ki values are calculated from the IC50 using the Cheng-Prusoff equation.

[2] = biological target: soluble human BACE1 catalytic domain (Homo sapiens (Human), UniProt P56817); test: BACE1 HTRF FRET Assay; type: biochemical; conditions: Ki calculated from IC50 using the Cheng-Prusoff equation; QSY7-APPswe-Eu substrate, pH 5.0
Sequence of soluble human BACE1 catalytic domain (P56817 75-416): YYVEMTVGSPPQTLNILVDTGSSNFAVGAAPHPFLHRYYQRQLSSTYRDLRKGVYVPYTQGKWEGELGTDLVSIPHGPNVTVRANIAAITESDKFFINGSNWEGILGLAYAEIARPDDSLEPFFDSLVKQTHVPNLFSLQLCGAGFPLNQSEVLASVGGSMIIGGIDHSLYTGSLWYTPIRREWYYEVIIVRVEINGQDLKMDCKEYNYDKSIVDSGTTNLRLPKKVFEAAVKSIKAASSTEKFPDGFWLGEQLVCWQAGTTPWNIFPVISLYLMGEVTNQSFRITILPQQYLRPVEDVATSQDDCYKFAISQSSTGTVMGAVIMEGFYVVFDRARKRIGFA
Excerpt: Na^+-Acetate pH 5.0; 1% Brij-35; Glycerol; Dimethyl Sulfoxide (DMSO); Recombinant human soluble BACE1 catalytic domain (>95% pure); APP Swedish mutant peptide substrate (QSY7-APP^swe-Eu): QSY7-EISEVNLDAEFC-Europium-amide.
A homogeneous time-resolved FRET assay can be used to determine IC50 values for inhibitors of the soluble human BACE1 catalytic domain. This assay monitors the increase of 620 nm fluorescence that resulted from BACE1 cleavage of an APPswedish APP^swe mutant peptide FRET substrate (QSY7-EISEVNLDAEFC-Europium-amide). This substrate contains an N-terminal QSY7 moiety that serves as a quencher of the C-terminal Europium fluorophore (620 nm Em). In the absence of enzyme activity, 620 nm fluorescence is low in the assay and increased linearly over 3 hours in the presence of uninhibited BACE1 enzyme Inhibition of BACE1 cleavage of the QSY7-APP^swe-Eu substrate by inhibitors is manifested as a suppression of 620 nm fluorescence.
Varying concentrations of inhibitors at 3× the final desired concentration in a volume of 10 ul are preincubated with purified human BACE1 catalytic domain (3 nM in 10 μl) for 30 minutes at 30° C. in reaction buffer containing 20 mM Na-Acetate pH 5.0, 10% glycerol, 0.1% Brij-35 and 7.5% DSMO. Reactions are initiated by addition of 10 μl of 600 nM QSY7-APP^swe-Eu substrate (200 nM final) to give a final reaction volume of 30 μl in a 384 well Nunc HTRF plate. The reactions are incubated at 30° C. for 1.5 hours. The 620 nm fluorescence is then read on a Rubystar HTRF plate reader (BMG Labtechnologies) using a 50 millisecond delay followed by a 400 millisecond acquisition time window Inhibitor IC50 values are derived from non-linear regression analysis of concentration response curves. Ki values are then calculated from IC50 values using the Cheng-Prusoff equation using a previously determined […] of 8 μM for the QSY7-APP^swe-Eu substrate at BACE1.

SMILES	Ki [1] [µM]	Ki [2] [µM]
CN1C(=N)N[C@@]2(CCOc3ccc(NC(=O)c4ccc(OCF)cn4)cc32)CS1(=O)=O [Example 2a]	0.059	0.091
COc1cnc(C(=O)Nc2ccc3c(c2)[C@]2(CCO3)CS(=O)(=O)N(C)C(=N)N2)c(C)c1 [Example 2i]	0.029	0.168
CN1C(=N)N[C@@]2(CCCc3ccc(NC(=O)c4cn5cc(C#N)ccc5n4)cc32)CS1(=O)=O [Example 5a]	1.13	0.636
CN1C(=N)N[C@@]2(CCOc3ccc(NC(=O)c4ccc(C(F)(F)F)cn4)cc32)CS1(=O)=O [Example 2o]	0.283	0.077
C#CCOc1ccc(C(=O)Nc2ccc3c(c2)[C@]2(CCO3)CS(=O)(=O)N(C)C(=N)N2)nc1 [Example 2h]	0.313	0.033
CN1C(=N)N[C@@]2(CCOc3ccc(NC(=O)c4cnc(OCCF)cn4)cc32)CS1(=O)=O [Example 2w]	0.572	0.229
CN1C(=N)N[C@@]2(CCOc3ccc(NC(=O)c4cnsn4)cc32)CS1(=O)=O [Example 2s]	0.046	0.24
CN1C(=N)N[C@@]2(CCOc3ccc(NC(=O)c4ccc(Cl)cn4)cc32)CS1(=O)=O [Example 1a]	0.017	0.07
CN1C(=N)N[C@@]2(CCCc3ccc(NC(=O)c4cnc(OCCF)cn4)cc32)CS1(=O)=O [Example 5e]	0.487	0.257
CN1C(=N)N[C@@]2(CCOc3ccc(NC(=O)c4ccc(OC(F)(F)F)cn4)cc32)CS1(=O)=O [Example 2v]	0.261	0.052
CN1C(=N)N[C@@]2(CCCc3ccc(NC(=O)c4cc5ccccn5n4)cc32)CS1(=O)=O [Example 5u]	0.385	1.34
CN1C(=N)N[C@@]2(CCCc3ccc(NC(=O)c4ccc(OCF)cn4)cc32)CS1(=O)=O [Example 5g]	0.033	0.077
COCC(=O)Nc1ccc2c(c1)[C@]1(CCO2)CS(=O)(=O)N(C)C(=N)N1 [Example 1c]	0.341	2.01
CN1C(=N)N[C@@]2(COCc3ccc(NC(=O)c4ccc(Cl)cn4)cc32)CS1(=O)=O [Example 3a]	0.058	0.272
CN1C(=N)N[C@@]2(CCCc3ccc(NC(=O)C(F)F)cc32)CS1(=O)=O [Example 4d]	0.515	2.58
CN1C(=N)N[C@@]2(CCOc3ccc(NC(=O)c4cnc(OCC(F)(F)F)cn4)cc32)CS1(=O)=O [Example 2g]	0.699	0.07
Cc1nc(C(=O)Nc2ccc3c(c2)[C@]2(CCO3)CS(=O)(=O)N(C)C(=N)N2)no1 [Example 2q]	0.031	0.367
COc1ccc(C(=O)Nc2ccc3c(c2)[C@]2(CCO3)CS(=O)(=O)N(C)C(=N)N2)nc1 [Example 1b]	0.13	0.233
CN1C(=N)N[C@@]2(CCOc3ccc(NC(=O)c4ccn(C(F)F)n4)cc32)CS1(=O)=O [Example 2p]	0.003	0.02
CN1C(=N)N[C@@]2(CCOc3ccc(NC(=O)c4cnc(C(F)(F)F)cn4)cc32)CS1(=O)=O [Example 2m]	1.15	0.303
CN1C(=N)N[C@@]2(CCCc3ccc(NC(=O)c4ccc(OC(F)(F)F)cn4)cc32)CS1(=O)=O [Example 5d]	0.219	0.055
CN1C(=N)N[C@@]2(CCOc3ccc(NC(=O)c4ncc(C(F)(F)F)cn4)cc32)CS1(=O)=O [Example 2d]	0.78	0.579
COc1cnc(C(=O)Nc2ccc3c(c2)[C@]2(CCO3)CS(=O)(=O)N(C)C(=N)N2)c(C)n1 [Example 2j]	0.16	0.294
Cc1cc(C#N)cnc1C(=O)Nc1ccc2c(c1)[C@]1(CCC2)CS(=O)(=O)N(C)C(=N)N1 [Example 5q]	0.017	0.009
COc1ccc(C(=O)Nc2ccc3c(c2)[C@]2(COC3)CS(=O)(=O)N(C)C(=N)N2)nc1 [Example 3b]	0.354	1.16
COc1cnc(C(=O)Nc2ccc3c(c2)[C@]2(CCO3)CS(=O)(=O)N(C)C(=N)N2)cn1 [Example 2l]	0.254	0.212

SMILES	Ki [1] [µM]	Ki [2] [µM]
C#CCOc1ccc(C(=O)Nc2ccc3c(c2)[C@]2(CCC3)CS(=O)(=O)N(C)C(=N)N2)nc1 [Example 5n]	0.221	0.042
CN1C(=N)N[C@@]2(CCCc3ccc(NC(=O)c4ccn(C(F)F)n4)cc32)CS1(=O)=O [Example 5w]	0.003	0.02
COc1cnc(C(=O)Nc2ccc3c(c2)[C@]2(CCC3)CS(=O)(=O)N(C)C(=N)N2)c(C)c1 [Example 5o]	0.017	0.119
COc1ccc(C(=O)Nc2ccc3c(c2)[C@]2(CCC3)CS(=O)(=O)N(C)C(=N)N2)nc1 [Example 4b]	0.067	0.228
CN1C(=N)N[C@@]2(CCOc3ccc(NC(=O)C(F)F)cc32)CS1(=O)=O [Example 1d]	0.728	2.27
COc1cnc(C(=O)Nc2ccc3c(c2)[C@]2(CCC3)CS(=O)(=O)N(C)C(=N)N2)cn1 [Example 5r]	0.177	0.144
Cc1cc(C#N)cnc1C(=O)Nc1ccc2c(c1)[C@]1(CCO2)CS(=O)(=O)N(C)C(=N)N1 [Example 2k]	0.026	0.015
CN1C(=N)N[C@@]2(CCOc3ccc(NC(=O)c4ncc(Cl)cc4F)cc32)CS1(=O)=O [Example 2e]	0.009	0.049
CN1C(=N)N[C@@]2(CCOc3ccc(NC(=O)c4ccc(OC(F)F)cn4)cc32)CS1(=O)=O [Example 2u]	0.166	0.044
COc1cnc(C(=O)Nc2ccc3c(c2)[C@]2(CCC3)CS(=O)(=O)N(C)C(=N)N2)c(C)n1 [Example 5p]	0.123	0.224
CN1C(=N)N[C@@]2(CCOc3ccc(NC(=O)c4ccc(F)cn4)cc32)CS1(=O)=O [Example 2t]	0.031	0.205
CN1C(=N)N[C@@]2(CCCc3ccc(NC(=O)c4cnc(C(F)(F)F)cn4)cc32)CS1(=O)=O [Example 5s]	0.685	0.253
CN1C(=N)N[C@@]2(CCCc3ccc(NC(=O)c4cnc(OCC(F)(F)F)cn4)cc32)CS1(=O)=O [Example 5m]	0.508	0.072
CN1C(=N)N[C@@]2(CCCc3ccc(NC(=O)c4ccc(C(F)(F)F)cn4)cc32)CS1(=O)=O [Example 5v]	0.171	0.055
C#CCOc1cnc(C(=O)Nc2ccc3c(c2)[C@]2(CCO3)CS(=O)(=O)N(C)C(=N)N2)cn1 [Example 2f]	0.138	0.013
CN1C(=N)N[C@@]2(CCOc3ccc(NC(=O)c4ccc(C#N)cn4)cc32)CS1(=O)=O [Example 2c]	0.051	0.026
COCC(=O)Nc1ccc2c(c1)[C@]1(CCC2)CS(=O)(=O)N(C)C(=N)N1 [Example 4c]	0.26	2.12
CN1C(=N)N[C@@]2(CCCc3ccc(NC(=O)c4ccc(F)cn4)cc32)CS1(=O)=O [Example 5b]	0.028	0.192
Cc1nc(C(=O)Nc2ccc3c(c2)[C@]2(CCC3)CS(=O)(=O)N(C)C(=N)N2)no1 [Example 5f]	0.016	0.314
Cc1nc(C(=O)Nc2ccc3c(c2)[C@]2(CCO3)CS(=O)(=O)N(C)C(=N)N2)co1 [Example 2b]	0.02	0.142
CN1C(=N)N[C@@]2(CCCc3ccc(NC(=O)c4ccc(C#N)cn4)cc32)CS1(=O)=O [Example 5i]	0.044	0.019
CN1C(=N)N[C@@]2(CCOc3ccc(NC(=O)c4cc5ccccn5n4)cc32)CS1(=O)=O [Example 2n]	0.337	1.49
CN1C(=N)N[C@@]2(CCCc3ccc(NC(=O)c4ccc(OC(F)F)cn4)cc32)CS1(=O)=O [Example 5c]	0.126	0.059
CN1C(=N)N[C@@]2(CCCc3ccc(NC(=O)c4ccc(Cl)cn4)cc32)CS1(=O)=O [Example 4a]	0.015	0.058
CN1C(=N)N[C@@]2(CCOc3ccc(NC(=O)c4cn5cc(C#N)ccc5n4)cc32)CS1(=O)=O [Example 2r]	6.91	0.604
